A short description of data set [1]: Half-life in human blood at 1 uM by HPLC-MS/MS analysis. The format is ADME, tissue-based.
Data set [2] is described as follows: Mutagenicity in Salmonella typhimurium TA1537 after 96 hrs in presence of rat liver S9 fraction by Ames test. The format is toxicity, subcellular. The conditions noted are these: salmonella enterica subsp. enterica serovar typhimurium, s9, 96 h. In general terms: The Ames test uses bacterial strains that need an amino acid and regain growth without it when mutated back.

The target in another data set is T1, Cytochrome P450 2B6 (Homo sapiens, UniProt P20813).
T1 sequence (P20813 whole entry): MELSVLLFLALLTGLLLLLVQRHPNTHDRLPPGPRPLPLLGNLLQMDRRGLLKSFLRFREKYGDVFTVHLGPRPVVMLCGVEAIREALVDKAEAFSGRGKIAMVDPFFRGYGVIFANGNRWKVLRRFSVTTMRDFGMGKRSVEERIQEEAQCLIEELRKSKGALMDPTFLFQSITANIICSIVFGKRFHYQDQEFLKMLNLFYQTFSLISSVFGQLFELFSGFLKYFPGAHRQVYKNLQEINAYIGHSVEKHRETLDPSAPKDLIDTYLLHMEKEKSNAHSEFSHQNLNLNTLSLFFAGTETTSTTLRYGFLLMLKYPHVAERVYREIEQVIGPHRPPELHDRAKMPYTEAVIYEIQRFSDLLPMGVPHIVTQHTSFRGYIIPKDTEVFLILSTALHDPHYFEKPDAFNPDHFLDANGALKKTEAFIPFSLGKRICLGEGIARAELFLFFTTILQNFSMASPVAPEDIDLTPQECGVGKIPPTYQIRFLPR
Put plainly: Inhibition of CYP2B6 in human liver microsomes using bupropion as substrate at 10 uM after 10 mins by HPLC-MS/MS analysis. The format is ADME.

Data set [3] is described as follows: n-Octanol-PBS buffer partition coefficient, log D of the compound at 100 uM at pH 7.4 after 1 hr by LC-MS/MS analysis. It is filed as physicochemical.
The target in data set [4] is T2, Prostaglandin E2 receptor EP4 subtype (Homo sapiens, UniProt P35408). As to the kind of experiment: Agonist activity at human EP4 receptor expressed in HEK293T/17 cells assessed as increase in intracellular cAMP level incubated for 30 mins by ELISA. The format is functional, cell-based. On the technique in general: Changes in cAMP serve as a functional read-out for many G protein-coupled receptors.

A further data set concerns CHO-K1. As to the kind of experiment: Clastogenic activity in CHOK1 cells after 4 hrs in absence of S9 fraction by micronucleus assay. It is filed as toxicity, cell-based, Cricetulus griseus. The following applies: chinese hamster, cho-k1, 4 h.
The species entered for a further data set is Homo sapiens. As to the kind of experiment: Selectivity ratio of Ki for displacement of [3H]PGE2 from human recombinant EP2 receptor expressed in HEK293 cell membranes to Ki for displacement of [3H]PGE2 from human recombinant EP4 receptor expressed in HEK293 cell membranes. Background: Displacement assays read how much labelled ligand stays bound in the presence of the test substance.

Data set [5] in a line: Mutagenicity in Salmonella typhimurium TA98 after 96 hrs in presence of rat liver S9 fraction by Ames test. The following applies: salmonella enterica subsp. enterica serovar typhimurium, s9, 96 h. It is filed as toxicity, subcellular.
The nature of data set [6]: Mutagenicity in Salmonella typhimurium TA100 after 96 hrs in absence of rat liver S9 fraction by Ames test. It is filed as toxicity. The following applies: salmonella enterica subsp. enterica serovar typhimurium, s9, 96 h.
Data set [7] is described as follows: Apparent permeability across basolateral to apical side in human Caco2 cells assessed as drug recovery at 5 uM after 120 mins by LC-MS/MS analysis. It is filed as ADME, cell-based. The conditions noted are these: Caco-2, read-out: Drug recovery.
The nature of data set [8]: Genotoxicity in Salmonella typhimurium TA100 at 0.6 to 100 uM after 96 hrs by photometry analysis. The format is toxicity. The following applies: salmonella enterica subsp. enterica serovar typhimurium.
Data set [9] can be described thus: Half-life in human plasma at 1 uM by HPLC-MS/MS analysis. It is filed as ADME, cell-free.
The nature of data set [10]: Apparent permeability across apical to basolateral side in human Caco2 cells at 5 uM after 120 mins by LC-MS/MS analysis. The format is ADME, cell-based. The following applies: Caco-2.
The next data set concerns the target Cytochrome P450 2C9 (Homo sapiens, UniProt P11712). As to the kind of experiment: Inhibition of CYP2C9 in human liver microsomes using diclofenac as substrate at uM after 10 mins by HPLC-MS/MS analysis. It is filed as ADME.
Data set [11] concerns the target Prostaglandin E2 receptor EP2 subtype (Homo sapiens, UniProt P43116). Put plainly: Agonist activity at human EP2 receptor expressed in HEK293T/17 cells assessed as increase in intracellular cAMP level incubated for 30 mins by ELISA. It is filed as functional, cell-based.
For another data set, the target named is T3, Cytochrome P450 1A (Homo sapiens, UniProt P04798+P05177).
T3 sequence (P04798 whole entry): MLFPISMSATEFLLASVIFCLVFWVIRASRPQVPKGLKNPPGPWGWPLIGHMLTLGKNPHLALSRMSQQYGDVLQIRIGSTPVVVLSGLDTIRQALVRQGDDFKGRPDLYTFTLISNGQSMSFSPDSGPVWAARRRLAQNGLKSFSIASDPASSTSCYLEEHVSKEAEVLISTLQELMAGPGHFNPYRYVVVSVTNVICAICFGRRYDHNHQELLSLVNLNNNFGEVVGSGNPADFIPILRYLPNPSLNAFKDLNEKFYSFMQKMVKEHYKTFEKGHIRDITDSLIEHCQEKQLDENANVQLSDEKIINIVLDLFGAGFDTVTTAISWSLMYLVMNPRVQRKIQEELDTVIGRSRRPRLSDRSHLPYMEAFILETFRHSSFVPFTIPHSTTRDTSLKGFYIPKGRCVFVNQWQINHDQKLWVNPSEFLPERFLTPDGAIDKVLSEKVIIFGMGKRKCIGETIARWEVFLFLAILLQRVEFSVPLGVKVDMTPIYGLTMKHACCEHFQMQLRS
T3 sequence (P05177 whole entry): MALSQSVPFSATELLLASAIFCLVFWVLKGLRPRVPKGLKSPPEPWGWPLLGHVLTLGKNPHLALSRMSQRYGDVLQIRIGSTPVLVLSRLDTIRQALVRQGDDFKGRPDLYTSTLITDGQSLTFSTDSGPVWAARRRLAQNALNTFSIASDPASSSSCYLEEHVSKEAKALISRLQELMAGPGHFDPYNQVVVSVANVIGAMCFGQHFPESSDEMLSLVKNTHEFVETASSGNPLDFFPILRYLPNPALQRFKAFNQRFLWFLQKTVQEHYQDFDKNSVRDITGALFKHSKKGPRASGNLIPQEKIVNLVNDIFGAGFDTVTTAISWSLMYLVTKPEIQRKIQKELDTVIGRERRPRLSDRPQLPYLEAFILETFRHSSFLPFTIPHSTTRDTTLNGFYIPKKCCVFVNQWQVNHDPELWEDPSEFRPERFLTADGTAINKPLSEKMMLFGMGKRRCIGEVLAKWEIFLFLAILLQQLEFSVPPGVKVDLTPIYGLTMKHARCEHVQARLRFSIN
Put plainly: Inhibition of CYP1A in human liver microsomes using phenacetin as substrate at 10 uM after 10 mins by HPLC-MS/MS analysis. It is filed as ADME.

Data set [12] is described as follows: Genotoxicity in Salmonella typhimurium TA1535 at 0.6 to 100 uM after 96 hrs by photometry analysis. It is filed as toxicity. The conditions noted are these: salmonella enterica subsp. enterica serovar typhimurium.
Data set [13] in a line: Mutagenicity in Salmonella typhimurium TA100 after 96 hrs in presence of rat liver S9 fraction by Ames test. The following applies: salmonella enterica subsp. enterica serovar typhimurium, s9, 96 h. It is filed as toxicity, subcellular.
A short description of data set [14]: Half-life in human hepatocytes at 0.1 uM by HPLC-MS/MS analysis. The format is ADME, cell-based, Hepatocyte.
Data set [15] in a line: Apparent permeability across apical to basolateral side in human Caco2 cells assessed as drug recovery at 5 uM after 120 mins by LC-MS/MS analysis. The format is ADME, cell-based. The conditions noted are these: Caco-2, read-out: Drug recovery.
A short description of data set [16]: Protein binding in human plasma at 10 uM after 4 hrs by HPLC-MS/MS-based equilibrium dialysis method. It is filed as ADME, cell-free. The following applies: read-out: PPB (converted).
For data set [17], the target named is T2, Prostaglandin E2 receptor EP4 subtype. Put plainly: Displacement of [3H]PGE2 from human recombinant EP4 receptor expressed in HEK293 cell membranes after 120 mins by liquid scintillation counting method.

Where only a bound is given, the exact number is not on record here.

T2 sequence (P35408 whole entry): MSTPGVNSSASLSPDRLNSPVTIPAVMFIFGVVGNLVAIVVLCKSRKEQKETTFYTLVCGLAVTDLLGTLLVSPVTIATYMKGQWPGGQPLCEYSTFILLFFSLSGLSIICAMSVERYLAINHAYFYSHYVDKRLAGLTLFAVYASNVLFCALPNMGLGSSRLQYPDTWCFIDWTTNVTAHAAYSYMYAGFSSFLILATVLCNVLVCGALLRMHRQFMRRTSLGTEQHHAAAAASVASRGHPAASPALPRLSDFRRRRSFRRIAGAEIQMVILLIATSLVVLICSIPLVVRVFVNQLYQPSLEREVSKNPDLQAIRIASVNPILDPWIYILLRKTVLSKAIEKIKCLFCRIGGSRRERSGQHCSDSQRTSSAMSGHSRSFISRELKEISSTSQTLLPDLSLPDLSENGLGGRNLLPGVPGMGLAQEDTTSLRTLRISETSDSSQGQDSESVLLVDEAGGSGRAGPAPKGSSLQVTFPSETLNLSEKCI
Chain of Prostaglandin E2 receptor EP2 subtype (P43116 whole entry): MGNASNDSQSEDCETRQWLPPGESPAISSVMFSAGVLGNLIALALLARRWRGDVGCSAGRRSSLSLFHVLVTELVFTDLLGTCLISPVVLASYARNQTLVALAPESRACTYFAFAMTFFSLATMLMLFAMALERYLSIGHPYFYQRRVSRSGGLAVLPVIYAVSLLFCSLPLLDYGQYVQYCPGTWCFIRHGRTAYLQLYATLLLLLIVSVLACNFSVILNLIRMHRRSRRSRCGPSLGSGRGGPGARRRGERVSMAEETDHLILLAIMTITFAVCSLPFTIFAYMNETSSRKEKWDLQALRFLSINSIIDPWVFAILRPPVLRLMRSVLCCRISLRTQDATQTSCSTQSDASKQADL
Chain of Cytochrome P450 2C9 (P11712 whole entry): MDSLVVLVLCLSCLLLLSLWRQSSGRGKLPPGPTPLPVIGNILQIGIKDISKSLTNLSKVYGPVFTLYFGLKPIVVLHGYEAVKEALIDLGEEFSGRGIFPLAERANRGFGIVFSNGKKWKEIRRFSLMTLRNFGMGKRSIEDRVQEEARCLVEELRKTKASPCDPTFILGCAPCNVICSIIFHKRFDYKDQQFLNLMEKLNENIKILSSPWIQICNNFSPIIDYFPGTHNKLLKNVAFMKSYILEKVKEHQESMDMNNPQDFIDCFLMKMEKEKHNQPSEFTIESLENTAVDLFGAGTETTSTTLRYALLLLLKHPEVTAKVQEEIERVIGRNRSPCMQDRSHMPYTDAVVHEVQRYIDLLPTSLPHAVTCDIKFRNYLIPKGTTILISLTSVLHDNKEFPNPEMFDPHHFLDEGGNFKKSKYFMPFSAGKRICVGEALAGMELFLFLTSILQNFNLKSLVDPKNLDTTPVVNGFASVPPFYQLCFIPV

What is called half-life is how long it takes for the measured level to halve. By logD is commonly meant the decadic logarithm of the distribution of all forms, ionised or not, between an organic phase and buffer at a given pH. A higher logD goes with higher lipophilicity. For orientation: EC50 means the midpoint of the concentration-response curve. As a reminder, the Papp A→B is the apparent permeability from the apical to the basolateral side of a cell layer. For orientation: Ki means the dissociation constant of the complex between target and ligand, obtained from inhibition or displacement. Consider `CCC#CC[C@H](C)[C@H](O)/C=C/[C@H]1CCC(=O)N1CCCCCCC(=O)O`, for which the half-life at 1 µM in data set [1] is over 2 h; in [9], 1.93 h. The Activity entry (in data set [2]; with CHO-K1; in data set [5]; in data set [6]; in data set [8]; in [12]) was “Non-Toxic” each time. Further, the Activity result in data set [13] is “Non-Toxic”. Besides, the “inhibition (INH)” value against Cytochrome P450 2B6, on Cytochrome P450 2C9 and on Cytochrome P450 1A was “Not Active” in each case. The pH-dependent lipophilicity (logD) at 1 h, 100 µM in data set [3] was -0.07. For the same molecule, the figures for the EC50 in [4] and in [11] were 19.9 nM and over 10000 nM, respectively. In addition, the Ratio Ki in the data set filed under Homo sapiens was over 5000. Further, the recovery at 2 h, 5 µM worked out at 97% in data set [7] and 103% in data set [15]. Also, in [10], the Papp A→B at 2 h, 5 µM amounted to 6.38 ×10⁻⁶ cm/s. This molecule also registered a half-life at 0.1 µM in [14] of over 2 h. For the same molecule, the fraction unbound at 4 h, 10 µM in [16] was 0.558. The Ki in data set [17] stood at 2.35 nM.
In the case of `CCC#CC[C@H](C)[C@H](O)/C=C/[C@H]1CC(F)(F)C(=O)N1CCCCCCC(=O)O`, the half-life at 1 µM in [1] and in [9] was over 2 h each time. The Activity entry (in data set [2]; in the data set on CHO-K1; in data set [5]; in [6]; in data set [8]; in data set [12]) was “Non-Toxic” each time. Besides, in [13], the Activity entry was “Non-Toxic”. The “inhibition (INH)” value on Cytochrome P450 2B6, on Cytochrome P450 2C9 and against Cytochrome P450 1A was “Not Active” each time. In addition, the pH-dependent lipophilicity (logD) at 1 h, 100 µM in data set [3] was determined as 0.11. The concentration giving a half-maximal response (EC50) in [4] was 2.63 nM; in data set [11], over 10000 nM. In addition, the Ratio Ki in the data set listed under Homo sapiens is over 5000. Moreover, the recovery at 2 h, 5 µM was 93% in data set [7] and 94% in data set [15]. Also, in data set [10], the apparent permeability from apical to basolateral (Papp A→B) at 2 h, 5 µM stood at 9.93 ×10⁻⁶ cm/s. Further, the half-life at 0.1 µM in [14] is over 2 h. The fraction unbound at 4 h, 10 µM in data set [16] was 0.416. Besides, the Ki in data set [17] amounted to 0.378 nM.

The values are drawn from ChEMBL document CHEMBL4385611, “Difluoromethylene at the γ-Lactam α-Position Improves 11-Deoxy-8-aza-PGE1 Series EP4 Receptor Binding and Activity: 11-Deoxy-10,10-difluoro-8-aza-PGE1 Analog (KMN-159) as a Potent EP4 Agonist” (J Med Chem, 2019).
